# Results from paper PMC8579695, “The Stringent Response Inhibits 70S Ribosome Formation in Staphylococcus aureus by Impeding GTPase-Ribosome Interactions” (mBio, 2021).
# System: HflX binding to 50S ribosomes
# Experiment: Stopped-flow fluorescence kinetics of HflX-Atto488 association to 50S subunits
# Set-up: species or system Staphylococcus aureus
# Experimental: FIG 3 Stopped-flow kinetic parameters of RA-GTPase association to the ribosomal subunits. (A) Schematic representation of the experimental setup for stopped-flow analysis. Nucleotides (brown circles), 50S subunits (orange oval), and Atto488-labeled RA-GTPases (purple hexagon) are indicated. Arrows indicate the direction of syringe movement. Atto-488 was excited using a 470-nm LED, and fluorescence was detected through a 515-nm long-pass filter. (B and C) Fluorescent change upon mixing 0.2 μM RbgA-Atto488 (B) or HflX-Atto488 (C) with 0.2 μM 50S ribosomal subunits in the presence of 100 μM GTP, ppGpp, and pppGpp or in the apo state using the stopped-flow fluorescence apparatus. Fluorescently labeled protein was also mixed with buffer lacking 50S subunits as a mixing control. Fluorescence of the reaction was tracked using exponential sampling for 10 s, and each curve represents the mean average of at least five technical replicates. (D) kapp1 dependence on 50S concentration for HflX complexed with GTP (green), ppGpp (pink), and pppGpp (black). (E) Same as for panel D for the kapp2 dependence. (F and G) Sum and product analyses of apparent rates during HflX association to the 50S subunit. HflX-Atto488 (0.05 μM) was mixed with increasing titrations of 50S ribosomal subunits over the fluorescently labeled protein in the presence of 20 μM GTP or ppGpp. The resultant traces (see Fig. S4) were analyzed by nonlinear regression using two exponential terms. The sum (F) and product (G) of apparent rates (kapp1 [D] and kapp2 [E]) were plotted as a function of the total concentration of the 50S subunits and HflX protein to determine the microscopic constants k1, k-1, k2, and k-2 (Table 2) and the resulting dissociation constant (Kd) (see Materials and Methods). Error bars represent the standard deviations of the apparent rates of four or more individual traces (D and E) or the standard errors of the two-step analysis (F and G).
# Next, we used a constant concentration of protein in the presence of 200-fold excess of each nucleotide and titrated it with increasing concentrations of ribosomal subunits (see Fig. S4). […]
# For initial controls, 0.2 μM Atto-488-labeled proteins were rapidly mixed with 0.2 μM E. coli 50S ribosomal subunits (purified as described elsewhere) in TAKM7 buffer (25 mM Tris-HCl [pH 7.4], 70 mM ammonium acetate, 30 mM KCl, 7 mM MgCl2) using an SX20 stopped-flow apparatus (Applied Photophysics) in the presence or absence of GTP, ppGpp, and pppGpp. […] Atto-488 was excited using a 470-nm LED and fluorescence was detected through a 515-nm long-pass filter. Reactions were monitored for 10 s, with 1,000 total data points per reaction. Each condition was subject to at least five technical repeats, with curves representing the mean average fluorescence of the technical repeats. […]
structure (smiles),measurement,setting,value
Nc1nc2c(ncn2[C@@H]2O[C@H](COP(=O)(O)OP(=O)(O)O)[C@@H](OP(=O)(O)OP(=O)(O)O)[C@H]2O)c(=O)[nH]1 [ppGpp],"reduction of the second, slow-phase reaction of HflX relative to GTP-bound",,4 fold
same,kapp2 of HflX association to 50S,"GTP: hyperbolic, plateau, ppGpp: independent of 50S concentration",1.0 s⁻¹
